Assay results from patent US7025999B2, “Chewing gum having prolonged sensory benefits” (Wm. Wrigley Jr. Company, priority 2001, dated 2006).

Assay: Relative sweetness of hydrophobic sweetener compounds (factor used for the Sucrose Equivalent calculation)
Conditions: Sucrose Equivalent = weight percent in the chewing gum multiplied by relative sweetness
Source text: It should be appreciated that due to the slow release of hydrophobic sweeteners from the chewing gum, it is believed that higher levels of the hydrophobic sweeteners as compared to typical water soluble sweeteners may be necessary to provide the desired level of sweetness or sweetness intensity. The amount can suitably vary depending on any number of factors, such as the desired level of sweetness and the relative sweetness intensity specific to the hydrophobic sweetener compound. As detailed below, the relative sweetness can vary depending on the type of hydrophobic sweetener compound. In an embodiment, chewing gum includes the hydrophobic sweetener compound in an amount ranging from about 50 to about 5000 Sucrose Equivalents. The Sucrose Equivalent factor is determined by multiplying the weight percent of the hydrophobic compound in the chewing gum by its relative sweetness. By way of example and not limitation, the following tables illustrate a variety of hydrophobic sweetener compounds representative of the hydrophobic sweetener compounds of Formulas I–XI, as previously discussed. The tables also indicate the relative sweetness of the hydrophobic sweetener compounds. As previously discussed, this factor can be utilized to calculate the Sucrose Equivalent calculation which relates to the amount of hydrophobic sweetener in the chewing gum.

Going from `COc1ccc(C2SCc3ccccc3S2)cc1O` (stereo not shown) [Compound 11] to `COc1ccc(C2Sc3ccccc3S2)cc1O` [Compound 13], the “Relative Sweetness” value falls from 1000 to 200.

Compared with `COc1ccc(C(=O)c2ccccc2C(=O)[O-])cc1.[Na+]` [Compound 36], `O=C(O)c1ccccc1C(=O)c1ccc(O)cc1` [Compound 30] is higher in “Relative Sweetness” value: 150 for the first, 200 for the second.

Going from `COc1ccc(C2OCc3ccccc3O2)cc1O` (stereo not shown) [Compound 5] to `COc1ccc(C2Oc3ccccc3O2)cc1O` [Compound 15], the “Relative Sweetness” value falls from 3000 to 150.

First: COc1ccc(CCc2ccccc2)cc1O [Compound 27]
Second: COc1ccc(CCC(=O)c2cccc(C(=O)O)c2)cc1O [Compound 25]
The “Relative Sweetness” value of the first is higher: 300 for the first, 80 for the second.

First: COc1ccc(C2CCc3ccccc3O2)cc1O (stereo not shown) [Compound 3]
Second: COc1ccc(C2COc3ccccc3O2)cc1O (stereo not shown) [Compound 4]
The “Relative Sweetness” value of the first is lower: 350 for the first, 450 for the second.

Compared with `COc1ccc(OC(=O)c2ccccc2C(=O)O)cc1` [Compound 34], `COc1ccc([S+]([O-])c2ccccc2C(=O)O)cc1` (stereo not shown) [Compound 23] is higher in “Relative Sweetness” value: 10 for the first, 50 for the second.

Compared with `Oc1cccc(C2OCc3ccccc3S2)c1` (stereo not shown) [Compound 18], `Oc1ccc(C2OCc3ccccc3S2)cc1O` (stereo not shown) [Compound 17] is higher in “Relative Sweetness” value: 100 for the first, 200 for the second.

Compared with `COc1ccc(C2CSc3cc(O)ccc3O2)cc1O` (stereo not shown) [Compound 20], `COc1ccc(C2CSc3ccccc3O2)cc1O` (stereo not shown) [Compound 7] is lower in “Relative Sweetness” value: 500 for the first, 250 for the second.

Going from `COc1ccc(C2CS(=O)(=O)c3ccccc3O2)cc1O` (stereo not shown) [Compound 19] to `COc1ccc(C2Oc3ccccc3S2)cc1O` (stereo not shown) [Compound 14], the “Relative Sweetness” value rises from 50 to 300.

Compared with `COc1ccc(C2COc3ccccc3C2)cc1O` (stereo not shown) [Compound 1], `COc1ccc(C2COc3ccccc3S2)cc1O` (stereo not shown) [Compound 9] is higher in “Relative Sweetness” value: 200 for the first, 2000 for the second.

First: COc1ccc(C2OCc3ccccc3S2)cc1S (stereo not shown) [Compound 16]
Second: COc1ccc(C2OCc3ccccc3S2)cc1O (stereo not shown) [Compound 8]
The “Relative Sweetness” value of the first is lower: 50 for the first, 9000 for the second.

Going from `COc1ccc(C(=O)c2ccccc2C(=O)O)cc1O` [Compound 21] to `O=C(O)c1ccccc1C(=O)c1ccc(O)c(O)c1` [Compound 22], the “Relative Sweetness” value falls from 250 to 100.

Going from `COc1ccc(C2CCc3ccccc3S2)cc1O` (stereo not shown) [Compound 10] to `COc1ccc(C2CSc3ccccc3S2)cc1O` (stereo not shown) [Compound 12], the “Relative Sweetness” value rises from 200 to 450.

First: COc1ccc(C2Oc3ccccc3CS2)cc1O (stereo not shown) [Compound 6]
Second: COc1ccc(C2Cc3ccccc3CO2)cc1O (stereo not shown) [Compound 2]
The “Relative Sweetness” value of the first is higher: 500 for the first, 350 for the second.

First: COc1ccc(C(=O)/C=C/C(=O)O)cc1 [Compound 33]
Second: COc1ccc(OCc2ccccc2C(=O)O)cc1O [Compound 26]
The “Relative Sweetness” value of the first is higher: 50 for the first, 10 for the second.

For `COc1ccc(CCC(=O)c2c(O)cc(O)cc2O)cc1O` [Compound 24], the “Relative Sweetness” value was 665.
